According to PMC8750417, “Intracellular Amplifiers of Reactive Oxygen Species Affecting Mitochondria as Radiosensitizers” (Cancers, 2021):
Like-named read-outs stand apart in the source and are kept apart here.

What was measured:
Assay type in all cases: cell-based, human
A2780 cells [1] = assay: Cell viability, MTT assay, A2780
Procedure: Determination of viability of cells in the presence of prodrugs and controls A2780 and BL-2 cells The medium was removed, and the cells were washed two times with DPBS, trypsinated, and resuspended in RPMI 1640 medium (A2780) supplemented with 5% FBS (for 24 h and 48 h assay) or 10% FBS (for 96 h assay) , 1% L-glutamine, and 1% penicillin/streptomycin.
A2780 cells: This suspension was spread in the wells of a 96 -well microtiter plate (25000 cells for A2780 per well per 100 μL) and left standing at 37 °C in the chamber filled with CO2 (5%) for overnight. Stock solutions of prodrugs of different concentra tions (1 μL, solvent dmso, final concentrations in wells were 2, 5, 10, 30, 50 μM) were added to the wells and incubated for specific periods of time. Four experiments were conducted for each concentration of the prodrug. Finally, 3-(4,5-dimethylthiazol-2-yl)-2,5-diphenyltetrazolium bromide (MTT, 20 μL of the solution prepared by dissolving MTT (5 mg) in DPBS buffer (1 mL)) was added to each well, incubated for 3 h, treated with sodium dodecyl sulfate (SDS) solution (90 μL, 10% solution in 0.01 M aqueous HC l), and incubated overnight. Afterward, the intensity of the absorbance at 590 nm was measured.
MTT is converted in live cells to blue dye with the absorbance maximum λ max at 590 nm.
The absorbance at 690 nm was taken as a baseline value. The baseline corrected absorbance at 590 nm (A(590 nm) − A(690 nm)) was applied to calculate the relative number of viable cells. IC50 values were determined by fitting the experimental data expressing the number of viable cells (%, Y-axis) versus drug concentration (μM, X-axis) with a line curve and the X-axis value corresponding to 50% viability was considered as IC50 value according to the line curve (Figure S50, Table S2). […]

SAS cells [2] = assay: Cytotoxicity MTT assay, SAS; conditions: for EC50: read-out: 50% cell survival (EC50)
Procedure: (§1) Optimization of concentration of prodrugs and controls / MTT assay
(§2) The MTT assay was also applied to assess the impact of various drugs (0.01-100 µM) on the viability of the two human head and neck squamous carcinoma cell (HNSCC) lines SAS and FaDu as well as retinal pigment epithelial ARPE-19 cells and human fibroblasts (HF). Cells were seeded into 96-well plates at concentrations of 4000 and 2000 cells per […]
(§3) h before exposure to the drugs. All drug dilutions were prepared from 20 mM stock solutions in DMSO. The final DMSO concentration was set to 0.5% in all sample s including control. After completion of the treatment, the wells were processed according to the routine MTT protocol as described above; the formazan absorbance was then measured on a Biotek Epoch Microplate Spectrophotometer at 590 nm and corrected for the background signal at 620 nm. N≥3 independent experiments were performed for each drug candidate, cell type and treatment interval. Cell survival was recorded as function of the drug concentration, and dose-response curves were fitted with the Boltzmann equation where appropriate. We calculated the half-maximal response (EC50) as well as the EC20 (80% survival) according to the line curve (see Tables S6-S8). EC20-values were used as a basis to select the compound-specific non-toxic drug concentrations for combination with radiotherapy.

FaDu cells = assay: Cytotoxicity MTT assay, FaDu; conditions: for EC50: read-out: 50% cell survival (EC50)
Procedure: as §1, §2, §3

SAS cells [3] = assay: Clonogenic assay (colony formation), SAS; conditions: for Relative clonogenic survival: 48 h exposure, untreated control = 1
Procedure: Optimization of concentration of prodrugs and controls / clonogenic assay The clonogenic survival assay is a classical approach to monitor radioresponse and drug- induced radiosensitization in cancer cells. We therefore initially determined whether the supposedly non -toxic drug concentrations defined for combinatorial treatment testing affect single cell colony formation capacity. For this pu rpose, exponentially growing SAS and FaDu cells were dissociated, single cell suspensions were prepared in standard DMEM and seeded in 6 -well plates at […]
defined low density (150-300 cells in 1 ml per well). After 8 h of incubation to allow cell adherence, 50% of the supernatant was exchanged by media containing the respective prodrugs at 2x concentration and exposed for 48 h. Treatment was then terminated by medium removal, and cells were allowed to grow for a period of ≥5-6 cell divisions estimated from the cell line-specific doubling times of the respective untreated controls (~7 days for SAS and ~10 days for FaDu cells). Control cells were always handled in parallel to the treated cells and thus exposed to the corresponding DMSO concentration(s). After the defined growth intervals, cells were fixed, stained and colonies of >50 cells were manually counted at low magnification to calculate plating efficiencies as the number of counted colonies relative to the number of seeded cells. Drug effect on clonogenic survival was then estimated by normalizing the colony formation of control cells to 1 (Table S9). […]

A2780 cells [4] = assay: Mitochondrial ROS (MitoSOX, flow cytometry), A2780
Procedure: Monitoring mitochondrial ROS (mROS)
A2780 cells were seeded in RPMI 1640 medium containing 5% FBS, 1% L-glutamine and 1% penicillin/streptomycin in a 96-well microtiter plate (total volume 0.1 mL) at a density of 250 cells/µL one day before the experiment. On the day of the experiment, the cells were washed with DPBS buffer and a fresh portion of RPMI 1640 medium containing 5% FBS, 1% L-glutamine and 1% penicillin/streptomycin (100 µL) was added followed by addition of compounds (1 μL of stock solutions in DMSO, final concentration of the prodrugs was 5, 10 μM and 30 μM) or carrier only (DMSO, 1 µL, final concentration 1 %, v/v) and incubation for 1 or 2 h in the dark chamber filled with CO 2 (5%) at 37 °C. After that, the cells were washed twice with DPBS buffer and the medium was replaced with HBSS (Hanks' Balanced Salt solution, 50 μL) containing MitoSOX (Red Mitochondrial Superoxide Indicator, Thermo-Fisher, Catalog number M36008, final concentration 5 µM obtained by adding 0.5 µ L of the 0.5 mM stock solution of MitoSOX in DMSO to the HBSS ) […]
(1 picture or pasted object on this page, not shown here) […]
and the cells were incubated in the dark chamber filled with CO2 (5%) at 37 °C for 20 min.
Next, the cells were detached from the culture dish using trypsin/EDTA (0.025%/0.01%, v/v, 50 µL). The cells were re-suspended in RPMI 1640 medium containing 5% FBS, 1% L-glutamine and 1% penicillin/streptomycin (100 µL). Finally, the fluorescence of live cells (λex = 488 nm, λem = 578 nm) in the suspensions was determined by using flow cytometry

Compound	IC50 (A2780 cells [1]; A2780, 24 h incubation) [µM]	IC50 (A2780 cells [1]; A2780, 48 h incubation) [µM]	IC50 (A2780 cells [1]; A2780, 96 h incubation) [µM]	80% cell survival (EC20) (SAS cells [2]; 24h) [µM]	EC50 (SAS cells [2]; 24h) [µM]	80% cell survival (EC20) (SAS cells [2]; 48h) [µM]	EC50 (SAS cells [2]; 48h) [µM]	80% cell survival (EC20) (FaDu cells; 24h) [µM]	EC50 (FaDu cells; 24h) [µM]	80% cell survival (EC20) (FaDu cells; 48h) [µM]	EC50 (FaDu cells; 48h) [µM]	Relative clonogenic survival (SAS cells [3]; 25 µM)	mitochondrial ROS (mROS) vs non-treated cells (A2780 cells [4])	further results
CC1(C)OB(c2ccc(COC(=O)N(Cc3cn(Cc4ccc(Cn5cc(Cc6ccccc6)nn5)cc4)nn3)[c-]3cccc3)cc2)OC1(C)C.[Fe+2].c1cc[cH-]c1 [2c]	> 30	> 30	4 ± 0.5	> 50	> 50	10.4 ± 6.8	> 50	> 50	> 50	18.0 ± 5.1	> 50	0.70 ± 0.10	significantly increased	cell viability at which the effect is saturated (A2780 cells [1]; A2780, 24 h): 70%; cell viability at which the effect is saturated (A2780 cells [1]; A2780, 48 h): 50%; cell viability at which the effect is saturated (A2780 cells [1]; A2780, 96 h): 43%; Relative clonogenic survival (SAS cells [3]; 10 µM): 0.78 ± 0.13; growth of colonies reduced to (SAS cells [3]; 25 µM): 70 ± 10%
CC1(C)OB(c2ccc(COC(=O)N(Cc3cccc(CN4CCCCC4)c3)[c-]3cccc3)cc2)OC1(C)C.[Fe+2].c1cc[cH-]c1 [5b]	–	7 ± 2	7 ± 2	7.0 ± 1.5	18.7 ± 4.7	2.4 ± 1.3	5.8 ± 0.8	11.5 ± 1.3	26.3 ± 3.4	–	19.8 ± 0.3	–	did not affect mROS	Relative clonogenic survival (SAS cells [3]; 0.5 µM): 0.96 ± 0.06; Relative clonogenic survival (SAS cells [3]; 1 µM): 0.76 ± 0.06; Relative clonogenic survival (SAS cells [3]; 2.5 µM): 0.36 ± 0.15; colony formation reduced to (SAS cells [3]; 10-fold lower dose than 25 µM): 36 ± 15%
CCOC(=O)CCCCCn1cc(CN(C(=O)OCc2ccc(B3OC(C)(C)C(C)(C)O3)cc2)[c-]2cccc2)nn1.[Fe+2].c1cc[cH-]c1 [compound 1]	–	32 ± 3	30 ± 5	–	–	–	–	–	–	–	–	–	substantially weaker	–
[Fe+2].c1cc[cH-]c1.c1cc[cH-]c1 [compound 6, ferrocene]	> 100	> 100	> 100	> 50	> 50	> 50	> 50	> 50	> 50	> 50	> 50	0.88 ± 0.10	–	–
